Results as given in patent US5523407A, “Quinoline derivatives, their production and use as ACAT inhibitors” (Takeda Chemical Industries, Ltd., priority 1989, dated 1996).

Legend:
[1] = target: T1, Acyl-CoA: cholesterol acyltransferase (ACAT) (Rattus norvegicus, UniProt Q7TQM4); experiment: ACAT inhibitory activity (rat small intestine mucosal microsome; labeled cholesterol ester from [1-^14 C] oleoyl-CoA); type: biochemical, Sprague-Dawley rat; details: 10^-6 M test compound; read-out: ACAT Inhibition Rate
T1 construct: from the mucosal microsome fraction of the small intestine; from tissue; host or cells: small intestine mucosal microsomes, male 6-week old Sprague-Dawley rats fasted 20 hours
T1 sequence (Q7TQM4 1-524): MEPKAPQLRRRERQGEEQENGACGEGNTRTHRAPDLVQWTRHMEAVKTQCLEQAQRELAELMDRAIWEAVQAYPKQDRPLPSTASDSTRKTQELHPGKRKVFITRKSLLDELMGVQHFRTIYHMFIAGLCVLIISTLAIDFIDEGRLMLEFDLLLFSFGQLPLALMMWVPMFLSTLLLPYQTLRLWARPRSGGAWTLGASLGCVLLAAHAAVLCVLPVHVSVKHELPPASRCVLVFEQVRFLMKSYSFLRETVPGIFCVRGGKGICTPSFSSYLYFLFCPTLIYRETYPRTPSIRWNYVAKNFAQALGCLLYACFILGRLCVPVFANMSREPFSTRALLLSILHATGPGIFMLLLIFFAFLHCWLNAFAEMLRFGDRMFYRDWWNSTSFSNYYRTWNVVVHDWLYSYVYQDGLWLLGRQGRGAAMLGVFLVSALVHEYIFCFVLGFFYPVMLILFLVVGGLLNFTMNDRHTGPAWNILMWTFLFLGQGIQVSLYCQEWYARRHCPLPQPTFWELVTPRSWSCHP
Protocol: 1. Acyl-CoA: cholesterol acyltransferase (ACAT) inhibitory activity
The enzyme ACAT was prepared by the method of Heider et al. described in Journal of Lipid Research, Vol. 24, page 1127 (1982), from the mucosal microsome fraction of the small intestine of male, 6-week old Sprague-Dawley rats which had been fasted for 20 hours.
ACAT activity was calculated by the method of Helgerud et. al. described in Journal of Lipid Research, Vol. 22, page 271 (1981), namely, by measuring the amount of the labeled cholesterol ester produced from [1-^14 C] oleoyl-CoA and endogenous cholesterol.
Inhibition rates (%) of the production of the labeled cholesterol ester wherein 10-^6 M of test compounds were added are shown as an index of ACAT inhibitory activity in Table 1.

[2] = test system: lipoperoxide production in homogenized brain; experiment: Lipoperoxide inhibitory activity (natural oxidation of homogenized rat brain, malonodialdehyde by TBA method); type: biochemical, Sprague-Dawley rat; details: for Lipoperoxide inhibition rate: 10^-5 M test compound; for IC50: read-out: Lipoperoxide Inhibitory Activity, 50% inhibitory concentration (IC50)
Protocol: 2. Lipoperoxide inhibitory activity
From 10-week, old, male Sprague-Dawely rats which were fed CE-2 diet (Nippon Claire) and water, their brains were taken out by the method of Stocks disclosed in Clinical Science Molecular Medicine, Vol. 78, page 215 (1974), to form lipoperoxide by natural oxidation. The compound (I) in an amount of 10-^3 moles was dissolved in ethanol, and the resultant (10 μl) was added to each homogenized brain. On the other hand, ethanol from which the compound (I) was removed was added to a control group of homogenized brain. A malonodialdehyde was measured by the (TBA) method disclosed in Okawa et al., Analysis Biochemistry, Vol. 95, page 351 (1979). The produced lipoperoxide was calculated based on the measured value of malonodialdehyde.

Row | Structure (SMILES) | inhibition at 1 µM [1] [%] | Lipoperoxide inhibition rate [2] [%] | IC50 [2] [nM]
1 | COc1cc(C=CC(=O)Nc2cnc3c(C)cc(C)cc3c2-c2ccccc2Cl)cc(OC)c1O [Example 33, 4-(2-chlorophenyl)-3-(4-hydroxy-3,5-dimethoxycinnamonylamino)-6,8-dimethylquinoline] | 81.7 | 96.1 | 1300
2 | COc1ccc(OC)c(C=CC(=O)Nc2cnc3c(C)cc(C)cc3c2-c2ccccc2Cl)c1 [Example 25, 4-(2-chlorophenyl)-3-(2,5-dimethoxycinnamoylamino)-6,8-dimethylquinoline] | 73.7 | – | –
3 | Cc1cc(C)c2ncc(NC(=O)c3cc(C(C)(C)C)c(O)c(C(C)(C)C)c3)c(-c3ccccc3Cl)c2c1 [Example 1, 4-(2-chlorophenyl)-3-(3,5-di-tert-butyl-4-hydroxybenzamido)-6,8-dimethylquinoline] | 82.2 | – | –
4 | CC(=O)Oc1c(C)c(C)c2c(c1C)CC(C)(C(=O)Nc1cnc3c(C)cc(C)cc3c1-c1ccccc1Cl)O2 (stereo not drawn) [Example 13, 3-(5-acetoxy-2,3-dihydro-2,4,6,7-tetramethylbenzofuran-2-ylcarbonyl)amino-4-(2-chlorophenyl)-6,8-dimethylquinoline] | 64.7 | 71.6 | –
5 | COc1ccc(C=CC(=O)Nc2cnc3c(C)cc(C)cc3c2-c2ccccc2Cl)c(OC)c1OC [Example 46, 4-(2-chlorophenyl)-6,8-dimethyl-3-(2,3,4-trimethoxycinnamoylamino) quinoline] | 72.6 | – | –
6 | COc1cccc(C=CC(=O)Nc2cnc3c(C)cc(C)cc3c2-c2ccccc2Cl)c1OC [Example 24, 4-(2-chlorophenyl)-3-(2,3-dimethoxycinnamoylamino)-6,8-di-methylquinoline] | 69.4 | – | –
7 | COc1ccc(-c2c(NC(=O)c3cc(C(C)(C)C)c(O)c(C(C)(C)C)c3)cnc3ccc(Cl)cc23)cc1OC [Example 3, 3-(3,5-di-tert-butyl-4-hydroxybenzamido)-6-chloro-4-(3,4-dimethoxyphenyl)quinoline] | 83.4 | – | –
8 | COc1cc(C=CC(=O)Nc2cnc3c(C)cc(C)cc3c2-c2ccccc2Cl)cc(OC)c1OC(C)=O [Example 27, 3-(4-acetoxy-3,5-dimethoxylcinnamoylamino)-4-(2-chlorophenyl)-6,8-dimethylquinoline] | 83.7 | 90.2 | –
9 | COc1ccc(-c2c(NC(=O)c3cc(C(C)(C)C)c(O)c(C(C)(C)C)c3)cnc3ccc(Cl)cc23)c(OC)c1OC [Example 4, 3-(3,5-di-tert-butyl-4-hydroxybenzamido)-6-chloro-4-(2,3,4-trimethoxyphenyl) quinoline] | 84.8 | – | –
10 | CC1=C(C(=O)Nc2cnc3c(C)cc(C)cc3c2-c2ccccc2Cl)Sc2ccccc2N1 [Example 15, 4-(2-chlorophenyl)-6,8-dimethyl-3-(3-methyl-4H-1,4-benzothiazin-2-ylcarbonyl) aminoquinoline] | 76 | – | –
11 | Cc1cc(C)c2ncc(NC(=O)C=Cc3cc(C)c(O)c(C)c3)c(-c3ccccc3Cl)c2c1 [Example 34, 4-(2-chlorophenyl)-3-(4-hydroxy-3,5-dimethylcinnamoylamino)-6,8-dimethylquinoline] | 86.4 | 62.1 | –
12 | Cc1cc(C)c2ncc(NC(=O)C=Cc3ccc(O)c(O)c3)c(-c3ccccc3Cl)c2c1 [Example 38, 4-(2-chlorophenyl)-3-(3,4-dihydroxycinnamoylamino)-6,8-dimethylquinoline] | 78.2 | – | –
13 | Cc1cc(C)c2ncc(NC(=O)C3(C)Cc4c(C)c(O)c(C)c(C)c4O3)c(-c3ccccc3Cl)c2c1 (stereo not drawn) [Example 14, 4-(2-chlorophenyl)-3-(2,3-dihydro-5-hydroxy-2,4,6,7-tetramethylbenzofuran-2-ylcarbonyl)amino-6,8-dimethylquinoline] | 83.1 | 98.4 | 370
14 | CC(=O)Oc1c(C)cc(C(=O)Nc2cnc3c(C)cc(C)cc3c2-c2ccccc2Cl)cc1C [Example 8, 3-(4-acetoxy-3,5-dimethylbenzamido)-4-(2-chlorophenyl)-6,8-dimethylquinoline] | 62 | – | –
15 | COc1ccc(C=CC(=O)Nc2cnc3cc(C)c(C)cc3c2-c2ccccc2Cl)cc1OC [Example 22, 4-(2-chlorophenyl)-3-(3,4-dimethoxycinnamoylamino)-6,7-di-methylquinoline] | 92.6 | – | –
16 | Cc1cc(C)c2ncc(NC(=O)C3(C)CCc4c(C)c(O)c(C)c(C)c4O3)c(-c3ccccc3Cl)c2c1 (stereo not drawn) [Example 12, 4-(2-chlorophenyl)-3-(6-hydroxy-2,5,7,8-tetramethylchroman-2-ylcarbonyl)amino-6,8-dimethylquinoline] | 41.2 | 98.5 | –
17 | CC1=C(C(=O)Nc2cnc3c(C)cc(C)cc3c2-c2ccccc2Cl)Sc2cc(F)ccc2N1 [Example 16, 4-(2-chlorophenyl)-3-(7-fluoro-3-methyl-4H-1,4-benzothiazin-2-ylcarbonyl)amino-6,8-dimethylquinoline] | 72.6 | 100 | 1200
18 | COC(=O)c1ccc(C=CC(=O)Nc2cnc3c(C)cc(C)cc3c2-c2ccccc2Cl)cc1 [Example 23, 4-(2-chlorophenyl)-3-(4-methoxycarbonylcinnamoylamino)-6,8-dimethylquinoline] | 65.9 | – | –
19 | CC(=O)Oc1c(C(C)C)cc(C(=O)Nc2cnc3c(C)cc(C)cc3c2-c2ccccc2Cl)cc1C(C)C [Example 6, 3-(4-acetoxy-3,5-diisopropylbenzamido)-4-(2-chlorophenyl)-6,8-dimethylquinoline] | 79.3 | – | –
20 | Cc1cc(C)c2ncc(NC(=O)c3cc(C)c(O)c(C)c3C)c(-c3ccccc3Cl)c2c1 [Example 11, 4-(2-chlorophenyl)-3-(4-hydroxy-2,3,5-trimethylbenzamido)-6,8-dimethylquinoline] | 94.3 | – | –
21 | Cc1cc(C)c2ncc(NC(=O)C=Cc3cc(C)c(O)c(C)c3C)c(-c3ccccc3Cl)c2c1 [Example 35, 4-(2-chlorophenyl)-3-(4-hydroxy-2,3,-trimethylcinnamoylamino)-6,8-dimethylquinoline] | 81.7 | 84.9 | 810
22 | Cc1cc(C)c2ncc(NC(=O)C=Cc3cccc(O)c3O)c(-c3ccccc3Cl)c2c1 [Example 32, 4-(2-chlorophenyl)-3-(2,3-dihydroxycinnamoylamino)-6,8-dimethylquinoline] | 66.6 | 99.7 | 400
23 | Cc1cc(C)c2ncc(NC(=O)Cc3ccc(F)cc3F)c(-c3ccccc3Cl)c2c1 [Example 18, 4-(2-chlorophenyl)-3-(2,4-difluorophenylacetylamino)-6,8-dimethylquinoline] | 94 | – | –
24 | O=C(C=Cc1ccc(O)c(O)c1)Nc1cnc2ccc(Cl)cc2c1-c1ccccc1Cl [Example 43, 6-chloro-4-(2-chlorophenyl)-3-(3,4-dihydroxycinnamoylamino)quinoline] | 97 | – | –
25 | COc1ccc(C=CC(=O)Nc2c(-c3ccccc3Cl)c3cc(C)cc(C)c3n(C)c2=O)cc1OC [Example 36, 4-(2-chlorophenyl)-3-(3,4-dimethoxycinnamoylamino)-1,6,8-trimethyl-2(1H)-quinolone] | 63 | – | –
